Converted amounts (≈) assume the structure as drawn. The source made the active and inactive calls. No cut-off for these calls is given here.
Experiments:
Candida albicans = experiment: Antimicrobial activity against amphotericin-resistant Candida albicans; format: functional, organism-based
Enterococcus faecium = experiment: Antimicrobial activity against vancomycin-resistant Enterococcus faecium; format: functional, organism-based
Staphylococcus aureus = experiment: Antimicrobial activity against methicillin-resistant Staphylococcus aureus; format: functional, organism-based
RAW264.7 [1] = experiment: Antiinflammatory activity in mouse RAW264.7 cells assessed as inhibition of LPS-stimulated nitric oxide production treated 30 mins prior to LPS challenge measured after 24 hrs by Griess reagent method; format: functional, cell-based
RAW264.7 [2] = experiment: Antiinflammatory activity in mouse RAW264.7 cells assessed as inhibition of LPS-stimulated nitric oxide production at 3 to 10 uM treated 30 mins prior to LPS challenge measured after 24 hrs by Griess reagent method; format: functional; parameters: scale not given: the % may be the effect or the level left
[3] = Inhibition of TNF-induced NF-kappaB activation transfected in HEK293 cells by luciferase reporter gene assay; format: cell-based
RAW264.7 [4] = experiment: Antiinflammatory activity in mouse RAW264.7 cells assessed as inhibition of LPS-stimulated PGE2 production at 3 to 10 uM treated 30 mins prior to LPS challenge measured after 24 hrs by ELISA; format: functional; parameters: scale not given: the % may be the effect or the level left
HCT-116 = experiment: Cytotoxicity against human HCT116 cells; format: functional, cell-based
RAW264.7 [5] = experiment: Cytotoxicity against mouse RAW264.7 cells at 3 to 10 uM by sulforhodamine B assay; format: cell-based; settings: raw264.7, 10 µM

SMILES	Activity (Candida albicans)	Activity (Enterococcus faecium)	Activity (Staphylococcus aureus)	Activity (RAW264.7 [1])	Activity (RAW264.7 [2])	IC50 [3]	Activity (RAW264.7 [4])	IC50 (HCT-116)	Activity (RAW264.7 [5])
CCCCCC[C@@H](C)[C@H](O)CC(=O)NCC(=O)N[C@H](C(=O)C[C@@H](CC(C)C)C(=O)N[C@@H](C)C(=O)N[C@@H](Cc1ccccc1)C(=O)OC)C(C)C	inactive	inactive	inactive						
CCCCCC[C@H](C)[C@@H]1CC(=O)NCC(=O)N[C@@H](C(C)C)C(=O)N[C@@H](CC(C)C)C(=O)N[C@@H](C)C(=O)N[C@@H](CCSC)C(=O)O1	inactive	inactive	inactive						
CCCCCC[C@H](C)[C@@H]1CC(=O)NCC(=O)N[C@@H](C(C)C)C(=O)N[C@@H](CC(C)C)C(=O)N[C@@H](C)C(=O)N[C@@H](Cc2ccccc2)C(=O)O1 [ARENAMIDE A]	inactive	inactive	inactive	Dose-dependent effect	35%	3.7 µM	50%	13.2 µg/mL (≈ 19.6 µM)	Non-toxic
CCCC[C@H](C)[C@@H]1CC(=O)NCC(=O)N[C@@H](C(C)C)C(=O)N[C@@H](CC(C)C)C(=O)N[C@@H](C)C(=O)N[C@@H](Cc2ccccc2)C(=O)O1 [ARENAMIDE B]	inactive	inactive	inactive	Dose-dependent effect	35%	1.7 µM	50%	19.2 µg/mL (≈ 29.8 µM)	Non-toxic
